Source: publication PMC7251097, “Aspartate/asparagine-β-hydroxylase: a high-throughput mass spectrometric assay for discovery of small molecule inhibitors” (Scientific Reports, 2020)
Structures can show the parent of a compound that is named as a salt. Where two headings read alike, the source gives them in different places.

Molecular target: T1, His6-AspH315–758 (human aspartate/asparagine-β-hydroxylase, AspH) (Homo sapiens, UniProt Q12797)
T1 construct: N-Terminally His6-tagged human AspH315–758 (His6-AspH315–758) was produced in E. coli BL21 (DE3) cells; made in house; host or cells: E. coli BL21 (DE3), pET-28a(+) vector
T1 sequence (Q12797 315-758): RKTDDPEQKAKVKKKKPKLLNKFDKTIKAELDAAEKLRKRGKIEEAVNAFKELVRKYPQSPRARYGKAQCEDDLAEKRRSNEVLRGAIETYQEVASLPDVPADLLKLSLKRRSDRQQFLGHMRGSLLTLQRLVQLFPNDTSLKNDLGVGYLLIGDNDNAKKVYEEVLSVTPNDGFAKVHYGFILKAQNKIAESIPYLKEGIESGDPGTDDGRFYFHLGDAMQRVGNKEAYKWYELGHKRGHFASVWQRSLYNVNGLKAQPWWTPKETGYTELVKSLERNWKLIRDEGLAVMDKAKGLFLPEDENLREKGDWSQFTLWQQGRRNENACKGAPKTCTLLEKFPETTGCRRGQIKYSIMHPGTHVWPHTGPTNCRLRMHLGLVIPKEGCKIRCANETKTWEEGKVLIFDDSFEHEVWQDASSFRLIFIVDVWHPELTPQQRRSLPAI
Assay: SPE-MS AspH inhibition assay (LOPAC screen at fixed 20 μM and IC50 dose-response), hydroxylation of cyclic peptide hFX-CP101–119
Assay type: biochemical
Settings: for % inhibition: 20 µM; for IC50: read-out: IC50

[1] = LOPAC compound at 20uM, plate 2, conversion of substrate peptide
[2] = LOPAC compound at 20uM, plate 2, normalised to DMSO and 2,4-PDCA controls, read-out: Plate 2 (% inhibition)
[3] = LOPAC compound at fixed 20 uM, plate 1, normalised to DMSO and 2,4-PDCA controls
[4] = LOPAC compound at fixed 20 uM, substrate conversion, plate 1
[5] = LOPAC compound at 20uM, plate 2, normalised to DMSO and 2,4-PDCA controls
[6] = LOPAC Plate 4, compound at 20 uM, substrate conversion
[7] = LOPAC compound at 20uM, plate 3, conversion of substrate peptide
[8] = 50 nM His6-AspH315–758, 1.0 μM hFX-CP101–119, 3 μM 2OG, 2 μM Fe(II), 50 mM HEPES pH 7.5, 20 °C, mean ± SD, n = 2 (2,4-PDCA n = 10)
[9] = LOPAC Plate 4, compound at 20 uM, read-out: % inhibition

Cn1c(=O)[nH]c2ncn(C)c2c1=O [1,7-Dimethylxanthine]
Plate 2 (% conversion) [1]: 35.50% | inhibition at 20 µM [2]: 1.36%

C[C@H]1C[C@H]2[C@@H]3CCC4=CC(=O)C=C[C@]4(C)[C@@]3(F)[C@@H](O)C[C@]2(C)[C@@]1(O)C(=O)CO [Betamethasone]
Plate 1 (% inhibition) [3]: -5.12% | Plate 1 (% conversion) [4]: 37.59%

CC[C@H]1OC(=O)[C@H](C)[C@@H](O[C@H]2C[C@@](C)(OC)[C@@H](O)[C@H](C)O2)[C@H](C)[C@@H](O[C@@H]2O[C@H](C)C[C@H](NC)[C@H]2O)[C@](C)(O)C[C@@H](C)CN(C)[C@H](C)[C@@H](O)[C@]1(C)O [CP-64434]
Plate 5 (% conversion): 37.11% | Plate 5 (% inhibition): -2.34%

Nc1ncnc2c1ncn2[C@@H]1O[C@H](COP(=O)(O)OP(=O)(O)OP(=O)(O)OP(=O)(O)OC[C@H]2O[C@@H](n3cnc4c(N)ncnc43)[C@H](O)[C@@H]2O)[C@@H](O)[C@H]1O
Plate 2 (% conversion) [1]: 27.58% | Plate 2 (% inhibition) [5]: 25.01%

CCCNC(=O)NS(=O)(=O)c1ccc(Cl)cc1 [Chlorpropamide]
Plate 1 (% inhibition) [3]: -3.59% | Plate 1 (% conversion) [4]: 37.08%

(±)-Butaclamol hydrochloride
Plate 1 (% inhibition) [3]: -27.23% | Plate 1 (% conversion) [4]: 45.02%

CN(CCCOc1ccc(Cc2ccccc2)cc1)CCC(=O)O.Cl [SC-57461A]
% conversion: 41.07% | Plate 5 (% conversion): 38.96% | Plate 5 (% inhibition): -7.77% | % inhibition: -13.47%

O=C(O)CCC(=O)O.c1ccc(C2(c3ccccc3)CC2C2=NCCN2)cc1 (stereo not drawn) [Cibenzoline succinate]
Plate 3 (% conversion): 24.00%

COc1cc2c(cc1OC)-c1c/c(=N\c3c(C)cc(C)cc3C)n(C)c(=O)n1CC2 [Trequinsin hydrochloride]
% conversion [6]: 28.50%

Cn1c(=O)c2[nH]c(-c3ccccc3)nc2n(C)c1=O [1,3-Dimethyl-8-phenylxanthine]
Plate 3 (% conversion) [7]: 35.64%

COc1cccc(-c2cc(=O)c3ccccc3o2)c1N [PD 98,059]
% conversion: 28.37%

Clc1ccc(C(c2ccccc2Cl)C(Cl)Cl)cc1 (stereo not drawn)
Plate 1 (% inhibition) [3]: -5.18% | Plate 1 (% conversion) [4]: 37.61%

N[C@H](C(=O)O)[C@H]1C[C@@H]1C(=O)O [(2S,1S,2S)-2-(carboxycyclopropyl)glycine]
Plate 2 (% conversion) [1]: 32.34% | Plate 2 (% inhibition) [5]: 10.80%

O=c1ccc2c(OCCCCc3ccccc3)c3ccoc3cc2o1 [Psora-4]
Plate 1 (% inhibition) [3]: 4.97% | Plate 1 (% conversion) [4]: 34.20%

C#C[C@]1(O)CC[C@H]2[C@@H]3CCC4=Cc5nc6nc7ccccc7n6cc5C[C@]4(C)[C@H]3CC[C@@]21C [WIN 62,577]
% conversion: 37.03% | % inhibition: -1.63%

CCN(CC)CCCN(c1ccccc1)C1Cc2ccccc2C1 [Aprindine hydrochloride]
% conversion [6]: 34.60%

CC(C)(C)NC(=O)[C@@H]1CN(Cc2cccnc2)CCN1C[C@@H](O)C[C@@H](Cc1ccccc1)C(=O)N[C@H]1c2ccccc2C[C@H]1O.O=S(=O)(O)O [Indinavir sulfate salt hydrate]
Plate 1 (% inhibition) [3]: -10.28% | Plate 1 (% conversion) [4]: 39.32%

CC[C@H](C)C(=O)O[C@H]1CCC=C2C=C[C@H](C)[C@H](CC[C@@H]3C[C@@H](O)CC(=O)O3)[C@H]21 [Mevastatin]
Plate 3 (% conversion) [7]: 41.68%

CCCCCCCCCC[Si](C)(C)CCC(=O)NC(Cc1ccc(C)cc1)c1ccccc1 (stereo not drawn) [Sandoz 58-035]
Plate 1 (% conversion): 37.15% | Plate 1 (% inhibition): -3.81%

Cc1cc(Cl)ccc1OCCCC(=O)NO [Droxinostat]
Plate 1 (% inhibition) [3]: 1.86% | Plate 1 (% conversion) [4]: 35.25%

COc1ccc2cccc(CCNC(C)=O)c2c1 [Agomelatine]
Plate 3 (% conversion) [7]: 37.59%

Clc1ccc(N/N=C(\c2ccccc2)c2ccccn2)nc1 [JIB-04, reference compound]
IC50 [8]: 4.24 ± 0.3 µM

CCN(CC)CCOC(=O)c1ccc(N)cc1 [Procaine hydrochloride]
% conversion [6]: 34.46% | inhibition at 20 µM [9]: 5.88%

Cc1ccccc1N1C(=O)c2cc(S(N)(=O)=O)c(Cl)cc2NC1C (stereo not drawn) [Metolazone]
Plate 2 (% conversion) [1]: 34.23% | inhibition at 20 µM [2]: 5.16% | Plate 3 (% conversion) [7]: 30.85%

C[N+]1(CCCCC[N+]2(C)CCCC2)CCCC1.O=C([O-])C(O)C(O)C(=O)O.O=C([O-])C(O)C(O)C(=O)O [Pentolinium di[L(+)-tartrate]]
Plate 3 (% conversion) [7]: 9.60%

CNC1(C)C2CCC(C2)C1(C)C (stereo not drawn) [Mecamylamine hydrochloride]
Plate 3 (% conversion) [7]: 34.21%

CSc1nc(N)c2ncn([C@@H]3O[C@H](COP(=O)([O-])OP(=O)([O-])OP(=O)([O-])[O-])[C@@H](O)[C@H]3O)c2n1.[Na+].[Na+].[Na+].[Na+]
Plate 1 (% inhibition) [3]: 63.66% | Plate 1 (% conversion) [4]: 14.49%

CC[N+](CC)(CC)CCOc1ccc(/C=C/c2ccccc2)cc1 [MG 624]
Plate 3 (% conversion) [7]: 29.92%

O=C1NC(=O)/C(=C/c2ccc(-c3ccc(F)cc3O)o2)S1 [AS-252424]
Plate 1 (% inhibition) [3]: -9.30% | Plate 1 (% conversion) [4]: 39.00%

CCc1ccccc1OC[C@@H](O)CN[C@H]1CCCc2ccccc21.O=C(O)C(=O)O [SR 59230A oxalate]
% conversion: 13.86% | % inhibition: 66.24%

OCCN1CCN(CCCN2c3ccccc3C=Cc3ccccc32)CC1 [Opipramol dihydrochloride]
Plate 1 (% inhibition) [3]: -12.26% | Plate 1 (% conversion) [4]: 39.99%

O=C(O)C(=O)N[C@H](Cc1ccccc1)C(=O)O [NOFD, N-oxalyl-D-phenylalanine, reference compound]
IC50 [μM] [8]: weak | IC50 [8]: 15.5 ± 3.13 µM

CN1CCN2c3ccccc3Cc3ccccc3C2C1 (stereo not drawn) [Mianserin hydrochloride]
Plate 3 (% conversion) [7]: 43.45%

CC[C@]1(O)C[C@H]2CN(CCc3c([nH]c4ccccc34)[C@@](C(=O)OC)(c3cc4c(cc3OC)N(C=O)[C@H]3[C@@](O)(C(=O)OC)[C@H](OC(C)=O)[C@]5(CC)C=CCN6CC[C@]43[C@@H]65)C2)C1 [Vincristine sulfate]
% conversion [6]: 40.04% | inhibition at 20 µM [9]: -10.5%

CN(C)c1cc(NC(=O)CNC(C)(C)C)c(O)c2c1C[C@H]1C[C@H]3[C@H](N(C)C)C(O)=C(C(N)=O)C(=O)[C@@]3(O)C(O)=C1C2=O [Tigecycline, tigecycline, reference compound]
IC50 [8]: 7.6 ± 1.95 µM | inhibition at 20 µM (AspH activity, fixed compound concentration 20 μM, initial LOPAC screen, 0.5%v/v DMSO, read-out: Inhibition at 20 µM [%]): 95.3% | Plate 5 (% inhibition) (plate 5 (Pfitzer), test compounds at fixed 20 μM): 90.85% | Plate 5 (% conversion) (plate 5 (Pfitzer), test compounds at fixed 20 μM, mean conversion DMSO 32.88): 5.39%
